Data on 4 molecules can be found in patent US12533417B2, “L-DOPA and/or DOPA decarboxylse inhibitors conjugated to sugar for the treatment of dopamine-responsive disorders” (B. G. Negev Technologies and Applications Ltd., at …, priority 2018, dated 2026).

Data set [1] in a line: L-DOPA concentration in human serum after adding DOPAM, HPLC-MS with internal standard. The data set is classed as in vitro ADME. The procedure:
HPLC-MS area under the curve were examined after addition of various L-DOPA concentrations to serum (FIG. 10). […] DOPAM was added to human serum in vitro, and L-DOPA concentrations in serum at various timepoints were determined by HPLC-MS and quantified using an internal standard. DOPAM released L-DOPA continuously over at least 24 hours (FIG. 12). The concentration of L-DOPA in serum increased in a linear fashion during the first 6 hours after adding DOPAM to the serum, after which L-DOPA concentration continued to increase through the final time point examined in this experiment (24 hours after DOPAM addition; FIG. 12).

The nature of data set [2]: Pharmacokinetic of L-DOPA following intravenous administration of L-DOPA and L-DOPAM-2 to mice. The settings on record: for L-DOPA in the plasma: equivalent to 80 mg/kg L-DOPA, 4 and 8 hours after injection, no DOPA decarboxylase inhibitor. The data set is classed as in vivo. As for the experimental part: In order to analyze the stability of DOPAM-2 in vivo, mice were injected intravenously with either L-DOPAM-2 or L-DOPA, where in either case, an equimolar dose of L-DOPA was administered (equivalent to 80 mg/kg L-DOPA). Mice were sacrificed 30, 60, 120, 240, and 480 minutes after the injection of the tested drug, blood was collected and plasma obtained by centrifugation. L-DOPA concentration was determined by LC-MS. 3 mice were tested per each time point, and each point on the graph represents mean±SEM.

Data set [3] can be described thus: Release of L-DOPA from L-DOPAM-1 and L-DOPAM-4 in human serum in vitro (Example 5). Particulars: 37° C., L-DOPA concentration by LC-MS (FIG. 13). Type of data set: in vitro ADME. The procedure: (§1) The stability of one molecule of L-DOPA and one Mannitol (L-DOPAM-1, M.W. 361) in serum was evaluated according to the following procedure: • 1. A solution of 2 mg L-DOPAM in lml of serum was prepared; • 2. A 200 μl aliquot was immediately withdrawn from that solution; • 3. 180 μl of TCA (trichloroacetic acid) 0.6N solution was added; • 4. The obtained mixture was centrifuged (5,000 rpm, 15 min., 40° C.); • 5. The supernatant was filtrated through 0.22 μm filter; • 6. The filtrate was diluted 20 times and injected into Liquid chromatography-mass spectrometry (LC-MS) (column: LUNA 3u C18 (2) 100A; 150×1.0 mm). The eluents were A=Acetonitrile, B=H2O+0.1% Acetic Acid. The following LC gradient was used: […]
The stability of one molecule of L-DOPA and one of mannitol (L-DOPAM-1), and of four molecules of L-DOPA and one of mannitol (L-DOPAM-4) in serum was evaluated by the method disclosed in Example 4. L-DOPAM-1 and L-DOPAM-4 were added into human serum and incubated at 37° C. Samples were taken at various times after the addition of the drugs to the serum and L-DOPA concentration was determined by LC-MS.

Data set [4] is described as follows: Stability of L-DOPAM in serum, LC-MS peak areas (Example 4). Type of data set: in vitro ADME, human. Particulars: for Area L-DOPA (LC-MS peak area) / Area L-DOPAM (LC-MS peak area) / Area Mannitol (LC-MS peak area): L-DOPAM 2 mg/ml in serum, 36° C. As for the experimental part:
as §1
The L-DOPAM solution in serum was stored at 36° C. Steps 2-6 were repeated after 2, 4, 23 and 46.5 hours.
The areas of the L-DOPAM, L-DOPA and Mannitol peaks were determined by extraction of only the ions of interest (FIGS. 3-7). The L-DOPA metabolite dopamine was not detected.
In order to semi-quantitatively determine the stability of L-DOPAM, the ratio of the peak areas of L-DOPA versus L-DOPAM and Mannitol versus L-DOPAM was calculated. An increase of the ratio of L-DOPA and Mannitol over time indicates the breakdown of L-DOPAM in serum.

Turning to `N[C@@H](Cc1ccc(O)c(O)c1)C(=O)O` [L-DOPA], in data set [1], the “time L-DOPA present in serum” value is on record as “about 2 hours”. The “L-DOPA in the plasma” value in data set [2] is “no L-DOPA was detected”.
Regarding `NC(Cc1ccc(O)c(O)c1)C(=O)OCC(OC(=O)C(N)Cc1ccc(O)c(O)c1)C(O)C(O)C(O)CO` (centres unmarked) [DOPAM-2], in data set [2], the “L-DOPA in the plasma” value was “significant levels of L-DOPA”. For the same molecule, in data set [2] (equivalent to 80 mg/kg L-DOPA, 60, 120, 240, and 480 minutes after injection), the “plasma concentrations of L-DOPA compared with mice injected with L-DOPA” value is on record as “higher”.
In the case of `NC(Cc1ccc(O)c(O)c1)C(=O)OCC(OC(=O)C(N)Cc1ccc(O)c(O)c1)C(O)C(O)C(COC(=O)C(N)Cc1ccc(O)c(O)c1)OC(=O)C(N)Cc1ccc(O)c(O)c1` [L-DOPAM-4], in data set [3], the “course of levels after the increase” value was “decreased slightly through the final time point examined after 72 hours”, the “time up to which levels increased” value worked out at 24 h and the “time up to which levels increased linearly” value is 5 h.
In the case of `NC(Cc1ccc(O)c(O)c1)C(=O)OC(CO)C(O)C(O)C(O)CO` [L-DOPAM-1], the “L-DOPAM detection in serum” value in data set [4] (46 h after exposure of L-DOPAM to serum) is on record as “still detected”. Also, the “Area L-DOPA (LC-MS peak area)” value in data set [4] (time 0 h) is given as 1019288083; in data set [4] (time 2 h), 2345301782; in data set [4] (time 4 h), 2632498093; in data set [4] (time 23 h), 1539342894; in data set [4] (time 46.5 h) it was 26308871. Moreover, the “Area L-DOPAM (LC-MS peak area)” value in data set [4] (time 0 h) worked out at 4065363001; in data set [4] (time 2 h) it was 3292402130; in data set [4] (time 4 h) it was 2146859775; in data set [4] (time 23 h), 498391022; in data set [4] (time 46.5 h), 460814075. In addition, the “Area Mannitol (LC-MS peak area)” value in data set [4] (time 0 h) is 60908307; in data set [4] (time 2 h) it was 65437168; in data set [4] (time 4 h), 97930402; in data set [4] (time 23 h), 73274763; in data set [4] (time 46.5 h), 83932712. In data set [4] (L-DOPAM in serum (FIG. 9)), the Mannitol levels entry is on record as “increased over time”. Also, the “L-DOPA metabolite dopamine detected” value in data set [4] (L-DOPAM in serum, 0-46.5 h, LC-MS) is reported as “not detected”. For the same molecule, the “Ratio L-DOPA/L-DOPAM (peak areas)” value came to 0.251 in data set [4] (L-DOPAM in serum, time 0 h); 0.712 in data set [4] (L-DOPAM in serum, time 2 h); 1.226 in data set [4] (L-DOPAM in serum, time 4 h); 3.089 in data set [4] (L-DOPAM in serum, time 23 h); 0.057 in data set [4] (L-DOPAM in serum, time 46.5 h). Besides, the “Ratio Mannitol/L-DOPAM (peak areas)” value was 0.015 in data set [4] (L-DOPAM in serum, time 0 h); 0.020 in data set [4] (L-DOPAM in serum, time 2 h); 0.046 in data set [4] (L-DOPAM in serum, time 4 h); 0.147 in data set [4] (L-DOPAM in serum, time 23 h); 0.182 in data set [4] (L-DOPAM in serum, time 46.5 h). Further, in data set [4] (L-DOPAM in serum, sharp decrease at the 46 h time point (FIG. 8)), the “time up to which L-DOPA levels increased” value came to 23 h. Besides, the “time over which L-DOPA was released continuously” value in data set [1] (DOPAM added to human serum in vitro, 37° C. (FIG. 12)) is listed as “at least 24 hours”. The “period of linear increase of L-DOPA concentration in serum” value in data set [1] (after adding DOPAM to human serum (FIG. 12)) was 6 h. For the same molecule, in data set [1], the “time L-DOPA present in serum” value is given as “at least 24 hours”. Besides, the “course of levels after the increase” value in data set [3] is “gradual decrease at 24 and 48 hours”. In addition, the “time up to which levels increased” value in data set [3] came to 8 h.
